{"source": "patent US8841284B2", "about": "“Compound having neurite-outgrowing activity” (Lead Chemical Co., Ltd, priority 2009, dated 2014)", "molecules": {"B1": {"name": "NGF: mNGF2. 5S (alomone labs, PRODUCT#N-100), used as mNGF-added medium (protein, UniProt P01139 122-241, looked up)", "Beta-nerve growth factor": "SSTHPVFHMGEFSVCDSVSVWVGDKTTATDIKGKEVTVLAEVNINNSVFRQYFFETKCRASNPVESGCRGIDSKHWNSYCTTTHTFVKALTTDEKQAAWRFIRIDTACVCVLSRKATRRG", "modifications": "Beta-nerve growth factor", "notes": "mNGF2; 5S (alomone labs, PRODUCT#N-100), used as mNGF-added medium"}}, "key": {"[1]": {"tested_on": "rat fetus (viviparity 17 days) cerebral cortex neuron", "experiment": "Neurite-outgrowing activity, rat fetus cerebral cortex neuron, poly-L-lysine-coated culture vessel", "assay_type": "cell-based", "conditions": "for Neurite Density / Neurite Length / Neurite Thickness: relative amount, basal medium = 1", "procedure": "Rat fetus (viviparity 17 days) cerebral cortex neuron (Sumitomo Bakelite Co., Ltd.)\nFrom a frozen cerebral tissue, using an attached protocol and attached reagents, a cerebral cortex neuron was prepared, was cultured in an NSF-1 (neurotrophic factor; name of substance or the like is not disclosed)-added PNBM medium for 2 hours, and then in a PNBM medium containing the sample (the compound produced in Example 1).\nThe dissemination was performed with a neuron concentration of 2×10^5 cells/0.5 mL/well (24-well-plate).\n(§1) The sample (the compound produced in Example 1) was dissolved in DMSO to prepare a 10 mM solution. The 10 mM solution was diluted with DMSO to prepare a 1 mM solution. Further dilution of the solution was performed with a PNBM medium.\n(§2) Finally, sample-added media of 0.2 μM concentration and 1 μM concentration were prepared. With respect to the mNGF medium, a 5 ng/mL mNGF-added medium and a 25 ng/mL mNGF-added medium were prepared.\nCulture in Poly-L-Lysine-Coated Culture Vessel\n(§3) On the third day of the culture, the culture medium was exchanged. Photographs of a neuron on the fifth day of the culture are shown in the drawings (a photograph of a neuron on the fifth day of the culture in the basal medium (additive-free) is shown in FIG. 4; a photograph of a neuron on the fifth day of the culture in the neurotrophic factor (NSF-1)-added medium is shown in FIG. 5; and a photograph of a neuron on the fifth day of the culture in the sample-added medium (1 μM concentration) is shown in FIG. 6). Here, the number in Table 1 indicates a relative amount when the value in the basal medium (additive-free) is assumed to be 1."}, "[2]": {"tested_on": "rat spinal cord dorsal root ganglion neuron", "experiment": "Neurite (axon)-outgrowing activity, rat spinal cord dorsal root ganglion neuron, laminin-coated culture vessel", "assay_type": "cell-based", "conditions": "fifth day of culture; for Neurite (axon) Density / Neurite (axon) Length / Neurite (axon) Thickness: relative amount, basal medium = 1", "procedure": "Rat spinal cord dorsal root ganglion (Takara Bio Inc.)\nLaminin-coated: a well was coated with a culture supernatant containing laminin 5B to be used.\nA spinal cord neuron in a frozen state was thawed according to the attached protocol and the neuron was cultured in an NSF-1-added PNBM medium for 2 hours and then in a PNBM medium containing the sample (the compound produced in Example 1).\nThe dissemination was performed with a spinal cord neuron concentration of 2.5×10^4 cells/0.1 mL/well (96-well-plate).\nas §1, §2\nCulture in Laminin-Coated Culture Vessel\nA spinal cord neuron can easily outgrow a neurite (axon) and outgrows a neurite even in an additive-free medium.\nas §3, with “FIG. 10;” for “FIG. 4;”, “FIG. 11;” for “FIG. 5;”, “FIG. 12).” for “FIG. 6).”, “Table 2” for “Table 1”"}, "[3]": {"tested_on": "rat spinal cord dorsal root ganglion neuron", "experiment": "Neurite (axon)-outgrowing activity, rat spinal cord dorsal root ganglion neuron, laminin-coated culture vessel", "assay_type": "cell-based", "conditions": "1 μM; second day of culture; FIG. 9"}}, "data": [{"molecule": "C[C@@H]([C@H]1CC[C@H]2[C@@H]3CCc4cc(O)ccc4[C@H]3CC[C@]12C)[C@H]1CC=C(CO)C(=O)O1", "note": "[Example 1, 6-[1-(3-hydroxy-13-methyl-7,8,9,11,12,13,14,15,16,17-decahydro-6H-cyclopenta[a]phenanthren-17-yl)-ethyl]-3-hydroxymethyl-5,6-dihydropyran-2-one]", "values": [{"measurement": "melting point", "value": "248 to 250", "unit": "°C"}, {"measurement": "Neurite Density", "setting": "[1]; 0.2 μM, fifth day of culture", "value": 1}, {"measurement": "Neurite Length", "setting": "[1]; 0.2 μM, fifth day of culture", "value": 1}, {"measurement": "Neurite Thickness", "setting": "[1]; 0.2 μM, fifth day of culture", "value": 1}, {"measurement": "neurite-outgrowing activity (in words)", "setting": "[1]; 1 μM, fifth day of culture", "value": "has a neurite-outgrowing activity"}, {"measurement": "Neurite Density", "setting": "[1]; 1 μM, fifth day of culture", "value": 1.5}, {"measurement": "Neurite Length", "setting": "[1]; 1 μM, fifth day of culture", "value": 2}, {"measurement": "Neurite Thickness", "setting": "[1]; 1 μM, fifth day of culture", "value": 2}, {"measurement": "number of neurites (in words)", "setting": "[1]; 1 μM, second day of culture, FIG. 3", "value": "the number of neurites increased more than in the basal medium (additive-free), but less than in the neurotrophic factor (NSF-1)-added medium"}, {"measurement": "Neurite (axon) Density", "setting": "[2]; 0.2 μM", "value": 2}, {"measurement": "Neurite (axon) Length", "setting": "[2]; 0.2 μM", "value": 2}, {"measurement": "Neurite (axon) Thickness", "setting": "[2]; 0.2 μM", "value": 1}, {"measurement": "axon length and thickness (in words)", "setting": "[2]; 1 μM", "value": "the axon outgrew longer but did not become thicker"}, {"measurement": "Neurite (axon) Density", "setting": "[2]; 1 μM", "value": 2}, {"measurement": "Neurite (axon) Length", "setting": "[2]; 1 μM", "value": 2.5}, {"measurement": "Neurite (axon) Thickness", "setting": "[2]; 1 μM", "value": 1}, {"measurement": "axon outgrowth (in words)", "setting": "[3]", "value": "the axon outgrew more than in the basal medium (additive-free), but less than in the neurotrophic factor (NSF-1)-added medium"}]}, {"molecule": "B1", "values": [{"measurement": "Neurite Density", "setting": "[1]; 5 ng/mL, fifth day of culture", "value": 2}, {"measurement": "Neurite Length", "setting": "[1]; 5 ng/mL, fifth day of culture", "value": 2}, {"measurement": "Neurite Thickness", "setting": "[1]; 5 ng/mL, fifth day of culture", "value": 2}, {"measurement": "Neurite Density", "setting": "[1]; 25 ng/mL, fifth day of culture", "value": 2.5}, {"measurement": "Neurite Length", "setting": "[1]; 25 ng/mL, fifth day of culture", "value": 2}, {"measurement": "Neurite Thickness", "setting": "[1]; 25 ng/mL, fifth day of culture", "value": 2}, {"measurement": "Neurite (axon) Density", "setting": "[2]; 5 ng/mL", "value": 2}, {"measurement": "Neurite (axon) Length", "setting": "[2]; 5 ng/mL", "value": 2}, {"measurement": "Neurite (axon) Thickness", "setting": "[2]; 5 ng/mL", "value": 1}, {"measurement": "Neurite (axon) Density", "setting": "[2]; 25 ng/mL", "value": 2}, {"measurement": "Neurite (axon) Length", "setting": "[2]; 25 ng/mL", "value": 3}, {"measurement": "Neurite (axon) Thickness", "setting": "[2]; 25 ng/mL", "value": 2}]}]}
